Assay results: US20240317744A1, “Bicyclic Ureas As Kinase Inhibitors” (Incyte Corporation, priority 2023, published 2024)

Key:
[1] = molecular target: catalytic domain (JH1, amino acids 808-1132) of human JAK2 (Homo sapiens, UniProt O60674); test: JAK2 HTRF Enzyme Activity Assay; assay type: biochemical; conditions: ATP 30 µM, 60 minutes at 25° C.; read-out: V617F ENZ 30 UM
[2] = molecular target: T1, pseudo-kinase domain (JH2, amino-acids 536-812) of human V617F mutant JAK2 (Homo sapiens, UniProt O60674, F794H/V617F/W659A/W777A); test: JAK2 LanthaScreen JH2-V617F Binding Assay; conditions: JAK2 JH2-V617F 0.26 nM, 50 nM tracer, 1 hour at 25° C.; read-out: JH2 BIND V617F
T1 construct: pseudo-kinase domain (JH2, amino-acids 536-812 with 3 surface mutations W659A, W777A, F794H); His (C); purchased BPS Bioscience 79498; host or cells: baculovirus expression system
Description: Example C. JAK2 LanthaScreen JH2-V617F Binding Assay
JAK2 JH2-V617F binding assay utilizes pseudo-kinase domain (JH2, amino-acids 536-812 with 3 surface mutations W659A, W777A, F794H) of human V617F mutant JAK2 expressed as C-terminal His-Avi-tagged, biotinylated protein in a baculovirus expression system (BPS Bioscience, Catalog #79498). The assay was conducted in black 384-well polystyrene plates in a final reaction volume of 20 μL. JAK2 JH2-V617F (0.26 nM) was incubated with compounds (100 nL serially diluted in DMSO) in the presence of 50 nM Fluorescent JAK2-JH2 Tracer (MedChem Express Catalog #HY-102055) and 0.25 nM Streptavidin-Tb cryptate (Cisbio Part #610SATLB) in assay buffer (50 mM Tris, pH=7.5, 10 mM MgCl2, 0.01% Brij-35, 0.1% BSA, 1 mM EGTA, 5% Glycerol and 5 mM DTT). Non-specific binding was accessed in the presence of 2 mM ATP. After incubation for 1 hour at 25° C., LanthaScreen signals were read on a PHERAstar FS plate reader (BMG LABTECH). Data was analyzed with IDBS XLfit and GraphPad Prism 5.0 software using a four parameter dose response curve to determine IC50 for each compound.

Chain of catalytic domain (JH1, amino acids 808-1132) of human JAK2 (O60674 808-1132 limits assumed): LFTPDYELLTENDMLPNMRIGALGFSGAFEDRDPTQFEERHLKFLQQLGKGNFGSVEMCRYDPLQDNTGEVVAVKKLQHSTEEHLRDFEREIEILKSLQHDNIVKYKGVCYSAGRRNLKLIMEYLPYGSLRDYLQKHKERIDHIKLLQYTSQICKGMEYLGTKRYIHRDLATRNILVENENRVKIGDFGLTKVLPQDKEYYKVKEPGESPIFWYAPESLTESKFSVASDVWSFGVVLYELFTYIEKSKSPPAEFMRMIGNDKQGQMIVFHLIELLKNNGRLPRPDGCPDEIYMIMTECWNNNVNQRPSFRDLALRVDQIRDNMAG
T1 sequence (O60674 536-812 V617F/W659A/W777A/F794H): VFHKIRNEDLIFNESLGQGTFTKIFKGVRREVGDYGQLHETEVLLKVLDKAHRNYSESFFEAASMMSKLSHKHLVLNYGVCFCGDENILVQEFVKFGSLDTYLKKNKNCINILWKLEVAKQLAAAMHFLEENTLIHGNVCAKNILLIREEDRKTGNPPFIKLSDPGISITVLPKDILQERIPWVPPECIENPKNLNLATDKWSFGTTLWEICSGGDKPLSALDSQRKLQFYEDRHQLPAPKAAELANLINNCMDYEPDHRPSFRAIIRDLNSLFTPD

Row | SMILES | IC50 [1] [nM] | IC50 [2] [nM]
1 | [2H]C([2H])([2H])n1c(=O)n([C@@H]2CC[C@@]([2H])(NC(=O)OC)C2)c2cc(Nc3cc(C)cc(-c4ncc(C(C)(C)O)s4)n3)ncc21 [Example 148, Methyl ((1R,3R)-3-(6-((6-(5-(2-hydroxypropan-2-yl)thiazol-2-yl)-4-methylpyridin-2-yl)amino)-3-(methyl-d3)-2-oxo-2,3-dihydro-1H-imidazo[4,5-c]pyridin-1-yl)cyclopentyl-1-d)carbamate] | > 1000 | ≤ 10
2 | [2H]C([2H])([2H])n1c(=O)n([C@@H]2CC[C@@]([2H])(NC(=O)OC)C2)c2cc(Nc3cc(C)c(F)c(-c4ncc(C(C)(C)O)s4)n3)ncc21 [Example 149, Methyl ((1R,3R)-3-(6-((5-fluoro-6-(5-(2-hydroxypropan-2-yl)thiazol-2-yl)-4-methylpyridin-2-yl)amino)-3-(methyl-d3)-2-oxo-2,3-dihydro-1H-imidazo[4,5-c]pyridin-1-yl)cyclopentyl-1-d)carbamate] | > 1000 | ≤ 10
3 | [2H]C([2H])([2H])c1cc(Nc2cc3c(cn2)n(C([2H])([2H])[2H])c(=O)n3[C@@H]2CC[C@@]([2H])(NC(=O)OC)C2)nc(-c2ncc(C(C)(C)O)s2)c1 [Example 150, Methyl ((1R,3R)-3-(6-((6-(5-(2-hydroxypropan-2-yl)thiazol-2-yl)-4-(methyl-d3)pyridin-2-yl)amino)-3-(methyl-d3)-2-oxo-2,3-dihydro-1H-imidazo[4,5-c]pyridin-1-yl)cyclopentyl-1-d)carbamate] | > 1000 | ≤ 10
4 | [2H]C([2H])([2H])n1c(=O)n([C@@H]2CC[C@](C)(NC(C)=O)C2)c2cc(Nc3cc(C(C)(C)O)cc(-c4cnc(OC(C)C)s4)n3)ncc21 [Example 151, N-((1S,3R)-3-(6-((4-(2-hydroxypropan-2-yl)-6-(2-isopropoxythiazol-5-yl)pyridin-2-yl)amino)-3-(methyl-d3)-2-oxo-2,3-dihydro-1H-imidazo[4,5-c]pyridin-1-yl)-1-methylcyclopentyl)acetamide] | > 1000 | ≤ 10
5 | [2H]C([2H])([2H])n1c(=O)n([C@@H]2CC[C@](C)(NC(C)=O)C2)c2cc(Nc3cc(C(C)(C)O)cc(-c4cnc(OC)s4)n3)ncc21 [Example 152, N-((1S,3R)-3-(6-((4-(2-Hydroxypropan-2-yl)-6-(2-methoxythiazol-5-yl)pyridin-2-yl)amino)-3-(methyl-d3)-2-oxo-2,3-dihydro-1H-imidazo[4,5-c]pyridin-1-yl)-1-methylcyclopentyl)acetamide] | > 1000 | ≤ 10
6 | [2H]C([2H])([2H])n1c(=O)n([C@@H]2CC[C@](C)(NC(C)=O)C2)c2cc(Nc3cc(C(C)(C)O)cc(-c4cnc(OCC)s4)n3)ncc21 [Example 153, N-((1S,3R)-3-(6-((6-(2-Ethoxythiazol-5-yl)-4-(2-hydroxypropan-2-yl)pyridin-2-yl)amino)-3-(methyl-d3)-2-oxo-2,3-dihydro-1H-imidazo[4,5-c]pyridin-1-yl)-1-methylcyclopentyl)acetamide] | > 1000 | ≤ 10
7 | [2H]C([2H])([2H])n1c(=O)n([C@H]2C[C@H](NC(=O)OC)[C@@H](O)C2)c2cc(Nc3cc(C(C)(C)O)cc(-c4ncc(C(F)(F)F)s4)n3)ncc21 [Example 155, Methyl ((1S,2S,4S)-2-hydroxy-4-(6-((4-(2-hydroxypropan-2-yl)-6-(5-(trifluoromethyl)thiazol-2-yl)pyridin-2-yl)amino)-3-(methyl-d3)-2-oxo-2,3-dihydro-1H-imidazo[4,5-c]pyridin-1-yl)cyclopentyl)carbamate] | > 1000 | ≤ 10
8 | [2H]C([2H])([2H])n1c(=O)n([C@@H]2CC[C@@]([2H])(NC(=O)OC)C2)c2cc(Nc3cc(C(C)(C)O)cc(-c4ncc(C(F)(F)F)s4)n3)ncc21 [Example 158, Methyl ((1R,3R)-3-(6-((4-(2-hydroxypropan-2-yl)-6-(5-(trifluoromethyl)thiazol-2-yl)pyridin-2-yl)amino)-3-(methyl-d3)-2-oxo-2,3-dihydro-1H-imidazo[4,5-c]pyridin-1-yl)cyclopentyl-1-d)carbamate] | > 1000 | ≤ 10
9 | [2H]C([2H])([2H])n1c(=O)n([C@@H]2CC[C@]([2H])(NC(=O)OC)C2)c2cc(Nc3cc(C(C)(C)O)cc(-c4ncc(C(F)(F)F)s4)n3)ncc21 [Example 159, Methyl ((1S,3R)-3-(6-((4-(2-hydroxypropan-2-yl)-6-(5-(trifluoromethyl)thiazol-2-yl)pyridin-2-yl)amino)-3-(methyl-d3)-2-oxo-2,3-dihydro-1H-imidazo[4,5-c]pyridin-1-yl)cyclopentyl-1-d)carbamate] | > 1000 | ≤ 10
10 | [2H]C([2H])([2H])n1c(=O)n([C@@H]2CC[C@]([2H])(NC(=O)OC)C2)c2cc(Nc3cc(-c4cnccc4C(F)(F)F)c4nc(C)c(-c5cnn(C(F)F)c5)n4n3)ncc21 [Example 160, Methyl ((1S,3R)-3-(6-((3-(1-(difluoromethyl)-1H-pyrazol-4-yl)-2-methyl-8-(4-(trifluoromethyl)pyridin-3-yl)imidazo[1,2-b]pyridazin-6-yl)amino)-3-(methyl-d3)-2-oxo-2,3-dihydro-1H-imidazo[4,5-c]pyridin-1-yl)cyclopentyl-1-d)carbamate] | > 1000 | ≤ 10
11 | [2H]C([2H])([2H])n1c(=O)n([C@@H]2CC[C@@H](NC(=O)OC)C2)c2cc(Nc3cc(C4CCOCC4)cc(-c4ncc(C(C)(C)O)s4)n3)ncc21 [Example 161, Methyl ((1R,3R)-3-(6-((6-(5-(2-hydroxypropan-2-yl)thiazol-2-yl)-4-(tetrahydro-2H-pyran-4-yl)pyridin-2-yl)amino)-3-(methyl-d3)-2-oxo-2,3-dihydro-1H-imidazo[4,5-c]pyridin-1-yl)cyclopentyl)carbamate] | > 1000 | ≤ 10
12 | [2H]C([2H])([2H])n1c(=O)n([C@@H]2CC[C@@]([2H])(NC(=O)OC)C2)c2cc(Nc3cc(C4CCOCC4)cc(-c4ncc(C(C)(C)O)s4)n3)ncc21 [Example 162, Methyl ((1R,3R)-3-(6-((6-(5-(2-hydroxypropan-2-yl)thiazol-2-yl)-4-(tetrahydro-2H-pyran-4-yl)pyridin-2-yl)amino)-3-(methyl-d3)-2-oxo-2,3-dihydro-1H-imidazo[4,5-c]pyridin-1-yl)cyclopentyl-1-d)carbamate] | > 1000 | ≤ 10
13 | [2H]C([2H])([2H])n1c(=O)n([C@@H]2CC[C@]([2H])(NC(=O)OC)C2)c2cc(Nc3cc(C4CCOCC4)cc(-c4ncc(C(C)(C)O)s4)n3)ncc21 [Example 163, Methyl ((1S,3R)-3-(6-((6-(5-(2-hydroxypropan-2-yl)thiazol-2-yl)-4-(tetrahydro-2H-pyran-4-yl)pyridin-2-yl)amino)-3-(methyl-d3)-2-oxo-2,3-dihydro-1H-imidazo[4,5-c]pyridin-1-yl)cyclopentyl-1-d)carbamate] | 500 to 1000 | ≤ 10
14 | [2H]C([2H])([2H])n1c(=O)n([C@@H]2CC[C@@]([2H])(NC(=O)OC)C2)c2cc(Nc3cc(-c4cnccc4C(F)(F)F)cc(-c4ncc(C(C)(C)O)s4)n3)ncc21 [Example 164, Methyl ((1R,3R)-3-(6-((6′-(5-(2-hydroxypropan-2-yl)thiazol-2-yl)-4-(trifluoromethyl)-[3,4′-bipyridin]-2′-yl)amino)-3-(methyl-d3)-2-oxo-2,3-dihydro-1H-imidazo[4,5-c]pyridin-1-yl)cyclopentyl-1-d)carbamate] | > 1000 | ≤ 10
